Laboratory results from patent US6472348B1, “Pyridone derivatives and herbicides” (Kumiai Chemical Industry Co., Ltd., priority 1996, dated 2002).

What was measured:
[1] = test system: slender amaranth (Am); assay: Test Example 4: crop plant selectivity by upland field soil treatment (cotton), herbicidal effects; assay type: in vivo; parameters: scale not given here; conditions: dose 6.3 g ai/10 a, evaluated 21st day after application
How it was run: (§1)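 Seeds of cotton and several weed species were sown in sand-filled pots and covered with soil before soil treatment with the test compound. Plants were grown in a greenhouse, and herbicidal effect and crop phytotoxicity were scored against set standards 21 days after application.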

[2] = test system: green foxtail (Se); assay: as above; assay type: in vivo; parameters: scale not given here; conditions: dose 6.3 g ai/10 a, evaluated 21st day after application
How it was run: as §1

[3] = test system: common lambsquarters (Ch); assay: as above; assay type: in vivo; parameters: scale not given here; conditions: dose 6.3 g ai/10 a, evaluated 21st day after application
How it was run: as §1

[4] = test system: China jute (Ab); assay: as above; assay type: in vivo; parameters: scale not given here; conditions: dose 6.3 g ai/10 a, evaluated 21st day after application
How it was run: as §1

[5] = test system: pale smartweed (Po); assay: as above; assay type: in vivo; parameters: scale not given here; conditions: dose 6.3 g ai/10 a, evaluated 21st day after application
How it was run: as §1

[6] = test system: slender amaranth (Am); assay: Test Example 7: crop plant selectivity by upland field soil treatment (corn), herbicidal effects; assay type: in vivo; parameters: scale not given here; conditions: dose 6.3 g ai/10a, 21st day after application
How it was run: (§2)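 Corn and weeds (green foxtail, pale smartweed, slender amaranth, common lambsquarters, China jute) sown in sand-filled pots, covered with soil and treated by soil application. Grown in a greenhouse; herbicidal effect and crop phytotoxicity scored on day 21 after application using a fixed rating scale.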

[7] = test system: green foxtail (Se); assay: as above; assay type: in vivo; parameters: scale not given here; conditions: dose 6.3 g ai/10a, 21st day after application
How it was run: as §2

[8] = test system: common lambsquarters (Ch); assay: as above; assay type: in vivo; parameters: scale not given here; conditions: dose 6.3 g ai/10a, 21st day after application
How it was run: as §2

[9] = test system: China jute (Ab); assay: as above; assay type: in vivo; parameters: scale not given here; conditions: dose 6.3 g ai/10a, 21st day after application
How it was run: as §2

[10] = test system: pale smartweed (Po); assay: as above; assay type: in vivo; parameters: scale not given here; conditions: dose 6.3 g ai/10a, 21st day after application
How it was run: as §2

[11] = test system: slender amaranth (Am); assay: Test Example 11: crop plant selectivity by upland field foliage treatment (corn), herbicidal effects; assay type: in vivo; parameters: scale not given here; conditions: upland field foliage treatment (corn test), dose 1.6 g ai/10a, 14th day after treatment
Method: (§3) (Test on Crop Plant Selectivity by Upland Field Foliage Treatment)
(§4) In a plastic pot (surface area: 600 cm^2) filled with sand, corn (Ze), pale smartweed (Po), slender amaranth (Am), common lambsquarters (Ch) and China jute (Ab) were sown and cultured in a green house for 2 weeks. […] The plants were then cultured in a green house, and the evaluation of the herbicidal effects and phytotoxicity was conducted on the 14th day after the treatment in accordance with the standards as identified in Table 47.

[12] = test system: common lambsquarters (Ch); assay: as above; assay type: in vivo; parameters: scale not given here; conditions: upland field foliage treatment (corn test), dose 1.6 g ai/10a, 14th day after treatment
Method: as §3, §4

[13] = test system: China jute (Ab); assay: as above; assay type: in vivo; parameters: scale not given here; conditions: upland field foliage treatment (corn test), dose 1.6 g ai/10a, 14th day after treatment
Method: as §3, §4

[14] = test system: pale smartweed (Po); assay: as above; assay type: in vivo; parameters: scale not given here; conditions: upland field foliage treatment (corn test), dose 1.6 g ai/10a, 14th day after treatment
Method: as §3, §4

[15] = test system: monochoria (Mo); assay: Test Example 1: herbicidal effects by paddy field soil treatment; assay type: in vivo; conditions: 100 g of the active ingredient per 10 ares, 21st day after the application, index 0-5 of Table 47;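 note: grade of growth control; 5 = at least 90%; 4 = 70 to 90%; 3 = 50 to 70%; 2 = 30 to 50%; 1 = 10 to 30%; 0 = under 10%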
How it was run: (§5)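 Scoring of herbicidal effect came 21 days after application of 100 g active ingredient per 10 ares to flooded (3 cm) paddy-soil pots sown with barnyardgrass, monochoria and bulrush, kept in a greenhouse.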

[16] = test system: barnyardgrass (Ec); assay: as above; assay type: in vivo; conditions: 100 g of the active ingredient per 10 ares, 21st day after the application, index 0-5 of Table 47
How it was run: as §5

[17] = test system: bulrush (Sc); assay: as above; assay type: in vivo; conditions: 100 g of the active ingredient per 10 ares, 21st day after the application, index 0-5 of Table 47;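 note: grade of growth control; 5 = at least 90%; 4 = 70 to 90%; 3 = 50 to 70%; 2 = 30 to 50%; 1 = 10 to 30%; 0 = under 10%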
How it was run: as §5

[18] = test system: cotton (Go); assay: Test Example 4: crop plant selectivity by upland field soil treatment (cotton), phytotoxicity; assay type: in vivo; parameters: scale not given here; conditions: dose 6.3 g ai/10 a, evaluated 21st day after application
How it was run: as §1

[19] = test system: wheat (Tr); assay: Test Example 9: crop plant selectivity by upland field foliage treatment (wheat), phytotoxicity; conditions: dose 1.6 g ai/10a, 14th day after treatment;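 note: grade of crop injury; 5 = at least 90%; 4 = 70 to 90%; 3 = 50 to 70%; 2 = 30 to 50%; 1 = 10 to 30%; 0 = under 10%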
How it was run: (§6)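 Seeds of wheat, pale smartweed, slender amaranth, common lambsquarters and China jute are sown in sand and grown 2 weeks under glass. Foliage is then treated, culture resumes in the greenhouse, and damage is graded on the 14th day.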

[20] = test system: corn (Ze); assay: Test Example 7: crop plant selectivity by upland field soil treatment (corn), phytotoxicity; assay type: in vivo; parameters: scale not given here; conditions: dose 6.3 g ai/10a, 21st day after application
How it was run: as §2

[21] = test system: corn (Ze); assay: Test Example 11: crop plant selectivity by upland field foliage treatment (corn), phytotoxicity; conditions: upland field foliage treatment, dose 1.6 g ai/10a, 14th day after treatment
Method: as §3, §4

[22] = test system: rice flatsedge (Ci); assay: Test Example 3: herbicidal effects by upland field foliage treatment; assay type: in vivo; parameters: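 grade of growth control; 5 = at least 90%; 4 = 70 to 90%; 3 = 50 to 70%; 2 = 30 to 50%; 1 = 10 to 30%; 0 = under 10%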
How it was run: (§7)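 Weeds were sown in sand-filled pots (surface area: 120 cm^2), covered with soil and grown in a greenhouse for 2 weeks before foliar treatment. Plants then stayed in the greenhouse, and herbicidal effect was scored against graded standards on the 14th day after treatment.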

[23] = test system: slender amaranth (Am); assay: as above; assay type: in vivo; parameters: scale not given here
How it was run: as §7

[24] = test system: barnyardgrass (Ec); assay: as above; assay type: in vivo; parameters: scale not given here
How it was run: as §7

[25] = test system: common lambsquarters (Ch); assay: as above; assay type: in vivo; parameters: scale not given here
How it was run: as §7

[26] = test system: pale smartweed (Po); assay: as above; assay type: in vivo; parameters: scale not given here
How it was run: as §7

[27] = test system: Diaitaria ciliaris (Di); assay: as above; assay type: in vivo; parameters: scale not given here
How it was run: as §7

[28] = test system: slender amaranth (Am); assay: Test Example 9: crop plant selectivity by upland field foliage treatment (wheat), herbicidal effects; assay type: in vivo; parameters: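 grade of growth control; 5 = at least 90%; 4 = 70 to 90%; 3 = 50 to 70%; 2 = 30 to 50%; 1 = 10 to 30%; 0 = under 10%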; conditions: dose 1.6 g ai/10a, 14th day after treatment
How it was run: as §6

[29] = test system: common lambsquarters (Ch); assay: as above; assay type: in vivo; parameters: scale not given here; conditions: dose 1.6 g ai/10a, 14th day after treatment
How it was run: as §6

[30] = test system: China jute (Ab); assay: as above; assay type: in vivo; parameters: scale not given here; conditions: dose 1.6 g ai/10a, 14th day after treatment
How it was run: as §6

[31] = test system: pale smartweed (Po); assay: as above; assay type: in vivo; parameters: scale not given here; conditions: dose 1.6 g ai/10a, 14th day after treatment
How it was run: as §6

[32] = test system: rice flatsedge (Ci); assay: Test Example 2: herbicidal effects by upland field soil treatment; assay type: in vivo; conditions: 100 g of the active ingredient per 10 ares;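 note: grade of growth control; 5 = at least 90%; 4 = 70 to 90%; 3 = 50 to 70%; 2 = 30 to 50%; 1 = 10 to 30%; 0 = under 10%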
Description: (§8) (Test on Herbicidal Effects by Upland Field Soil Treatment)

[33] = test system: slender amaranth (Am); assay: as above; assay type: in vivo; conditions: 100 g of the active ingredient per 10 ares
Description: as §8

[34] = test system: barnyardgrass (Ec); assay: as above; assay type: in vivo; conditions: 100 g of the active ingredient per 10 ares
Description: as §8

[35] = test system: common lambsquarters (Ch); assay: as above; assay type: in vivo; conditions: 100 g of the active ingredient per 10 ares
Description: as §8

[36] = test system: pale smartweed (Po); assay: as above; assay type: in vivo; conditions: 100 g of the active ingredient per 10 ares
Description: as §8

[37] = test system: Digitaria ciliaris (Di); assay: as above; assay type: in vivo; conditions: 100 g of the active ingredient per 10 ares
Description: as §8

[38] = test system: slender amaranth (Am); assay: Test Example 6: crop plant selectivity by upland field soil treatment (soybean), herbicidal effects; assay type: in vivo; parameters: scale not given here; conditions: dose 6.3 g ai/10a, 21st day after application
How it was run: (§9)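 Soybean and weed seeds were sown in sand-filled pots and covered with soil, then given a pre-emergence soil application. Plants were grown on in a greenhouse, and herbicidal effect and crop phytotoxicity were scored against a set rating scale 21 days after application.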

[39] = test system: green foxtail (Se); assay: as above; assay type: in vivo; parameters: scale not given here; conditions: dose 6.3 g ai/10a, 21st day after application
How it was run: as §9

[40] = test system: common lambsquarters (Ch); assay: as above; assay type: in vivo; parameters: scale not given here; conditions: dose 6.3 g ai/10a, 21st day after application
How it was run: as §9

[41] = test system: China jute (Ab); assay: as above; assay type: in vivo; parameters: scale not given here; conditions: dose 6.3 g ai/10a, 21st day after application
How it was run: as §9

[42] = test system: pale smartweed (Po); assay: as above; assay type: in vivo; parameters: scale not given here; conditions: dose 6.3 g ai/10a, 21st day after application
How it was run: as §9

[43] = test system: soybean (Gl); assay: Test Example 6: crop plant selectivity by upland field soil treatment (soybean), phytotoxicity; assay type: in vivo; parameters: scale not given here; conditions: dose 6.3 g ai/10a, 21st day after application
How it was run: as §9

[44] = 100 g of the active ingredient per 10 ares, evaluated on the 14th day after treatment
[45] = 21st day after the application, index 0-5 of Table 47
[46] = evaluated on the 21st day after application
[47] = 100 g active ingredient per 10 ares, evaluated 14th day after treatment

Structure (SMILES)	Herbicidal effects Am [1]	Herbicidal effects Se [2]	Herbicidal effects Ch [3]	Herbicidal effects Ab [4]	Herbicidal effects Po [5]	Herbicidal effects Am [11]	Herbicidal effects Ch [12]	Herbicidal effects Ab [13]	Herbicidal effects Po [14]	Herbicidal effects Mo [15]	Herbicidal effects Ec [16]	Herbicidal effects Sc [17]	Phytotoxicity Go [18]	Phytotoxicity Tr [19]	Phytotoxicity Ze [21]	Herbicidal effects Am [28]	Herbicidal effects Ch [29]	Herbicidal effects Ab [30]	Herbicidal effects Po [31]	melting point	also measured
Cn1c(C(F)(F)F)ccc(-c2cc(Oc3ncccn3)c(Cl)cc2Cl)c1=O [1-41]	5	5	5	5	5	5	5	5	5	5	5	5	1	2	2	5	5	5	5	–	Herbicidal effects Am [6]: 5; Herbicidal effects Se [7]: 5; Herbicidal effects Ch [8]: 5; Herbicidal effects Ab [9]: 5; Herbicidal effects Po [10]: 5; Phytotoxicity Ze [20]: 1; Herbicidal effects Ci [22, 44]: 5; Herbicidal effects Am [23, 44]: 5; Herbicidal effects Ec [24, 44]: 5; Herbicidal effects Ch [25, 44]: 5; Herbicidal effects Po [26, 44]: 5; Herbicidal effects Di [27, 44]: 5; Herbicidal effects Ci [32, 45]: 5; Herbicidal effects Am [33, 45]: 5; Herbicidal effects Ec [34, 45]: 5; Herbicidal effects Ch [35, 45]: 5; Herbicidal effects Po [36, 45]: 5; Herbicidal effects Di [37, 45]: 5
COCCOc1cc(-c2ccc(C(F)(F)F)n(C)c2=O)c(F)cc1Cl [1-170]	5	5	5	5	5	5	5	5	5	5	5	5	1	1	0	5	5	5	5	–	Herbicidal effects Am [38]: 5; Herbicidal effects Se [39]: 5; Herbicidal effects Ch [40]: 5; Herbicidal effects Ab [41]: 5; Herbicidal effects Po [42]: 5; Herbicidal effects Ci [22, 44]: 5; Herbicidal effects Am [23, 44]: 5; Herbicidal effects Ec [24, 44]: 5; Herbicidal effects Ch [25, 44]: 5; Herbicidal effects Po [26, 44]: 5; Herbicidal effects Di [27, 44]: 5; Phytotoxicity Gl [43]: 2; Herbicidal effects Ci [32, 46]: 5; Herbicidal effects Am [33, 46]: 5; Herbicidal effects Ec [34, 46]: 5; Herbicidal effects Ch [35, 46]: 5; Herbicidal effects Po [36, 46]: 5; Herbicidal effects Di [37, 46]: 5
Cn1c(C(F)(F)F)ccc(-c2c(Cl)cc(Cl)c3oc(C(Br)(Br)Br)cc23)c1=O [4-40, 3-(5,7-dichloro-2-tribromomethylbenzofuran-4-yl)-1-methyl-6-trifluoromethyl-2-(1H)-pyridone]	–	–	–	–	–	–	–	–	–	–	–	–	–	–	–	–	–	–	–	225 to 227 °C	–
CC(C)C(=O)c1cc(-c2ccc(C(F)(F)F)n(C)c2=O)c(F)cc1Cl [Compound 1-196]	5	5	5	5	5	5	5	5	5	5	5	5	0	2	2	5	5	5	5	–	Herbicidal effects Am [6]: 5; Herbicidal effects Se [7]: 5; Herbicidal effects Ch [8]: 5; Herbicidal effects Ab [9]: 5; Herbicidal effects Po [10]: 5; Phytotoxicity Ze [20]: 1; Herbicidal effects Ci [22, 47]: 5; Herbicidal effects Am [23, 47]: 5; Herbicidal effects Ec [24, 47]: 5; Herbicidal effects Ch [25, 47]: 5; Herbicidal effects Po [26, 47]: 5; Herbicidal effects Di [27, 47]: 5; Herbicidal effects Ci [32, 46]: 5; Herbicidal effects Am [33, 46]: 5; Herbicidal effects Ec [34, 46]: 5; Herbicidal effects Ch [35, 46]: 5; Herbicidal effects Po [36, 46]: 5; Herbicidal effects Di [37, 46]: 5
Cc1ccc(-c2ccc(Cl)cc2Cl)c(=O)n1C(F)F [Compound No. 1-8, 3-(2,4-dichlorophenyl)-1-difluoromethyl-6-methyl-2(1H)-pyridone]	–	–	–	–	–	–	–	–	–	–	–	–	–	–	–	–	–	–	–	83 to 85 °C	–
Cn1c(C(F)(F)F)ccc(-c2cc(S)c(Cl)cc2F)c1=O [Compound No. 1-42, 3-(4-chloro-2-fluoro-5-mercaptophenyl)-1-methyl-6-trifluoromethyl-2(1H)-pyridone]	–	–	–	–	–	–	–	–	–	–	–	–	–	–	–	–	–	–	–	141 to 142 °C	–
